Experimental data published in patent publication US20230312687A1, “CELL-FREE ANIMAL COLLAGEN, METHODS OF PRODUCTION AND USES THEREOF” (ALEPH FARMS LTD., priority 2020, published 2023).
Entries after “also recorded” stand apart in the source; their conditions may differ.

Key:
Type in all cases: cell-based
[1] = system: Bovine LOX (lysyl oxidase) gene; test: RT-PCR analysis of LOX mRNA level after siRNA transfection; conditions: 20 nM siRNA, bovine stromal cells, 24 hours after transfection, n=2
Experimental: The Bovine LOX (lysyl oxidase) gene (Gene ID: 280841) was knockdown using siRNA. 20,000 bovine stromal cells/cm^2 were transfected with 20 nM of siRNA sequence against LOX (5′[…]3′; SEQ ID NO:1) or a scramble sequence (5′[…]3′; SEQ ID NO:2) as control, using Dharmacon DharmaFECT 1 transfection reagent. 24 hours after transfection the cells were lysed for RNA extraction. The RNA was reverse transcribed to cDNA and 5 ng/μl were subjected to RT-PCR with the following primers: […]

[2] = system: bovine embryonic fibroblasts; test: Secreted soluble collagen in growth medium (QuickZyme soluble collagen assay, Sirius Red)
Experimental: (§1) 35,000 bovine embryonic fibroblast cells/cm^2 were seeded in standard medium. 24 hours later the medium was changed to basal medium and the soluble collagen was measured on day 6 or 7. Likewise, 20,000 stromal cells/cm^2 were seeded in basal medium. 24 hours later the cells were transfected with siRNA targeted to LOX or a scramble sequence as a control. After 24 hours the medium was changed to fresh basal medium. The soluble collagen levels were measured daily from day 3 until day 7.
(§2) Secreted soluble collagen was measured using QuickZyme soluble collagen assay which is based on binding of the dye Sirius Red to collagen. Following binding of the dye, the collagen-dye complex precipitates, resulting in a colored pellet. The pellet is re-suspended in an alkaline solution and the absorbance is measured in a plate reader.
(§3) • 1. Conditioned culture medium is collected and centrifuged for 10 minutes at 1,500 g (at 4° C.) to remove cell debris. • 2. The supernatant is diluted in a dilution buffer placed in the assay microplate (V-shaped plate). • 3. The collagen standard solution is diluted in serial dilutions in the dilution buffer and placed in the assay microplate (V-shaped plate). • 4. Sirius red dye is added to the samples and to the standards and mixed. • 5. The plate is centrifuged for 60 minutes at 3000×g at 4° C. to precipitate the pellet. • 6. The pellets are washed and resuspended.
(§4) The resuspended colored solution is transferred to the reading microplate (flat bottom) and read at 540 nm.
35,000 bovine embryonic fibroblast cells/cm^2 were expanded in standard medium (DMEM+10% Fetal Bovine Serum+1% penicillin\streptomycin). 24 hours after seeding their medium was changed to basal medium with 50 μM GM6001.
(§5) 35,000 bovine embryonic fibroblast cells/cm^2 were seeded in standard medium (DMEM+10% Fetal Bovine Serum+1% penicillin\streptomycin). 24 hours after seeding the medium was changed to basal medium with different concentration (0-500 μM) of GM6001, a matrix metalloprotease (MMP) inhibitor which prevents C-terminal cleavage of the procollagen. After 4 days, the medium was collected from the cultures and measured for soluble collagen levels. Insoluble collagen was collected from the culture dish its level was measured.

[3] = system: bovine embryonic fibroblasts; test: Insoluble collagen from culture dish (Total Collagen Assay kit, hydroxyproline); conditions: different concentrations of GM6001 (0-500 μM in text, 0-200 μM in legend), 4 days
Experimental: 24 hours after seeding the medium was changed to basal medium with different concentration (0-500 μM) of GM6001, a matrix metalloprotease (MMP) inhibitor which prevents C-terminal cleavage of the procollagen.
• 1. Wash the cells once with PBS.
as §5

bovine stromal cells = test: Secreted soluble collagen in growth medium of stromal cells (QuickZyme soluble collagen assay)
Experimental: as §1, §2
as §3, with “The plate is centrifuged for 60 minutes at 3000×g at 4° C. to precipitate the pellet. • 6. The pellets are washed and resuspended.” left out
as §4

Molecule	reduction of LOX expression (mRNA) relative to scramble control [1]	amount of secreted soluble collagen for 10^6 bovine embryonic fibroblasts ([2]; 50 μM GM6001)	increase of soluble collagen in the growth medium vs basal medium ([2]; 50 μM GM6001, 72 hours)	amount of soluble collagen in the growth medium ([2]; Basal medium + 50 μM GM6001, 72 hours, N=6, basal medium alone 375)	secreted soluble collagen in the growth medium (in words) ([2]; basal medium supplemented with GM6001, bovine embryonic fibroblasts)	maximum soluble collagen level ([2]; basal medium with 50 μM GM6001, measured daily, maximum on the 7th day)	soluble collagen level with increasing GM6001 concentration ([2]; different concentrations of GM6001, 4 days, increase up to about 50 μM)	insoluble collagen level with increasing GM6001 concentration [3]	soluble collagen levels in the growth medium, LOX silencing combined with GM6001 (bovine stromal cells; LOX siRNA-treated bovine stromal cells, basal medium with 50 μM GM6001)	secreted soluble collagen in the growth medium (in words) (bovine stromal cells; basal medium supplemented with GM6001, bovine stromal cells)
5′GCUGAUAACCAGACGGCACUU3′ (listed as RNA, chemistry not given here) [siRNA sequence against LOX]	80%	–	–	–	–	–	–	–	–	–
CNC(=O)[C@H](Cc1c[nH]c2ccccc12)NC(=O)[C@@H](CC(=O)NO)CC(C)C [GM6001, Ilomastat]	–	about 1 mg	more than 2 folds	825 μg/10^6 cells	enhanced	~900 μg\10^6 cells	enriches; also recorded: increased	decrease; also recorded: decreasing	increased; also recorded: enhanced	enhanced
